Measured values from ChEMBL document CHEMBL4765298, “Substituted oxindol-3-ylidenes as AMP-activated protein kinase (AMPK) inhibitors” (Eur J Med Chem, 2020).
pEC50, pIC50: −log10 of the molar value. Calls of active or inactive are those of the source. The rule behind the calls is not given here.

Legend:
[1] = target: 5'-AMP-activated protein kinase catalytic subunit alpha-1 (Homo sapiens) (UniProt Q13131); test: Inhibition of recombinant human His6-tagged AMPK alpha1 at 20 uM using ULight CRBtide as substrate incubated for 1 hr followed by substrate addition and measured after 1 hr by TR-FRET assay relative to control; details: time 2.0 hrs
Chain of 5'-AMP-activated protein kinase catalytic subunit alpha-1 (Homo sapiens) (Q13131 whole entry, looked up, the tested form may be a part): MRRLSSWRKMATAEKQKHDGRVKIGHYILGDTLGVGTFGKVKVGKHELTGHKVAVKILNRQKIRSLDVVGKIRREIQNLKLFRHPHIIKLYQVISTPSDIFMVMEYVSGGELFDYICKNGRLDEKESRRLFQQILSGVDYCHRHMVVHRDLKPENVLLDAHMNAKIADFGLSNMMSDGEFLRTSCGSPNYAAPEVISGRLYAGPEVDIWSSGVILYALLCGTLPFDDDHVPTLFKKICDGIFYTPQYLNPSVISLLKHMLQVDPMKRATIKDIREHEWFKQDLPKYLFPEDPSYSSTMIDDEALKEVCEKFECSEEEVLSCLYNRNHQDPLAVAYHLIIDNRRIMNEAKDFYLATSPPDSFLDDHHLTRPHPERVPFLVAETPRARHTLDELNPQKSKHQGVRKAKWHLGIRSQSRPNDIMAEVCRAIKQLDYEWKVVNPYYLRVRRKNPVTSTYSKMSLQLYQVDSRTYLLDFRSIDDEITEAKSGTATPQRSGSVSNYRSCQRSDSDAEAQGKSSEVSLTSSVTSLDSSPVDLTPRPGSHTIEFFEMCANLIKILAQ

[2] = target: 5'-AMP-activated protein kinase catalytic subunit alpha-2 (Homo sapiens) (UniProt P54646); test: Inhibition of recombinant human His6-tagged AMPK alpha2 at 10 uM using ULight CRBtide as substrate incubated for 1 hr followed by substrate addition and measured after 1 hr by TR-FRET assay relative to control; details: time 2.0 hrs
Chain of 5'-AMP-activated protein kinase catalytic subunit alpha-2 (Homo sapiens) (P54646 whole entry, looked up, the tested form may be a part): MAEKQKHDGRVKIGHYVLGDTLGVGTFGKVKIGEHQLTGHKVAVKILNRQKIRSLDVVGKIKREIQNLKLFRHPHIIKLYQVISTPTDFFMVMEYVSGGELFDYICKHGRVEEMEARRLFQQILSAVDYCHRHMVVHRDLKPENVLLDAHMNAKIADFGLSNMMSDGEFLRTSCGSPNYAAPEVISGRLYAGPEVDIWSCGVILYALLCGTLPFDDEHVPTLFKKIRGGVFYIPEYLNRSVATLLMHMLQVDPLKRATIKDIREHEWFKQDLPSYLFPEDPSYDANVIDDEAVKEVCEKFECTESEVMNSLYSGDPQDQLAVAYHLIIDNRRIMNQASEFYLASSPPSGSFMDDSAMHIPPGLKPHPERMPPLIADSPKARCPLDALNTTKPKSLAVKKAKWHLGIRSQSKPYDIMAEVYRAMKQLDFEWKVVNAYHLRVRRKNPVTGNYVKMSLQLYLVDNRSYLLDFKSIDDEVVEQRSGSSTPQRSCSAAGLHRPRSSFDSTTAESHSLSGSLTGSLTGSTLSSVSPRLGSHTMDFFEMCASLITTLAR

[3] = Cytotoxicity against human K562 cells assessed as reduction in cell viability at 50 uM incubated for 24 hrs by celltox-green assay relative to control; assay type: cell-based; details: read-out: INH
[4] = Cytotoxicity against human K562 cells assessed as reduction in cell viability at 50 uM incubated for 72 hrs by MTS assay relative to control; assay type: cell-based; details: read-out: INH
K562 [5] = test: Cytotoxicity against human K562 cells assessed as reduction in cell viability incubated for 48 hrs by celltox-green assay; assay type: cell-based; details: K562, 48 h
K562 [6] = test: Cytotoxicity against human K562 cells assessed as reduction in cell viability incubated for 24 hrs by cell-titer glo assay; assay type: cell-based; details: K562, 24 h
K562 [7] = test: Cytotoxicity against human K562 cells assessed as reduction in cell viability incubated for 72 hrs by MTS assay; assay type: cell-based; details: K562, 72 h
K562 [8] = test: Cytotoxicity against human K562 cells assessed as reduction in cell viability incubated for 24 hrs by celltox-green assay; assay type: cell-based; details: K562, 24 h
[9] = Cytotoxicity against human K562 cells assessed as reduction in cell viability at 50 uM incubated for 24 hrs by cell-titer glo assay relative to control; assay type: cell-based; details: read-out: INH
[10] = Cytotoxicity against human K562 cells assessed as reduction in cell viability at 50 uM incubated for 48 hrs by celltox-green assay relative to control; assay type: cell-based; details: read-out: INH
K562 [11] = test: Inhibition of AMPK in human K562 cells assessed as p-ACC (Ser79) level at 5 uM in glucose free medium and in presence of 2-Deoxy-D-glucose measured after 3 hrs by ELISA relative to control; assay type: cell-based
[12] = Inhibition of recombinant human GST-tagged AMPK alpha1/beta1/gamma1 expressed in African green monkey COS7 cells assessed as reduction in AMPK beta 1 S108 phosphorylation incubated for 10 mins by [gamma 32-P]-ATP based radiometric scintillation counting analysis; assay type: cell-based
[13] = Cytotoxicity against human K562 cells assessed as reduction in cell viability at 1.56 uM incubated for 72 hrs by MTS assay relative to control; assay type: cell-based; details: read-out: INH
[14] = target: Mast/stem cell growth factor receptor Kit (Homo sapiens) (UniProt P10721); test: Inhibition of wild-type human partial length autoinhibited KIT (Y545 to D952 residues) expressed in mammalian expression system at 100 nM by Kinomescan method relative to control
Chain of Mast/stem cell growth factor receptor Kit (Homo sapiens) (P10721 whole entry, the tested form may be a part): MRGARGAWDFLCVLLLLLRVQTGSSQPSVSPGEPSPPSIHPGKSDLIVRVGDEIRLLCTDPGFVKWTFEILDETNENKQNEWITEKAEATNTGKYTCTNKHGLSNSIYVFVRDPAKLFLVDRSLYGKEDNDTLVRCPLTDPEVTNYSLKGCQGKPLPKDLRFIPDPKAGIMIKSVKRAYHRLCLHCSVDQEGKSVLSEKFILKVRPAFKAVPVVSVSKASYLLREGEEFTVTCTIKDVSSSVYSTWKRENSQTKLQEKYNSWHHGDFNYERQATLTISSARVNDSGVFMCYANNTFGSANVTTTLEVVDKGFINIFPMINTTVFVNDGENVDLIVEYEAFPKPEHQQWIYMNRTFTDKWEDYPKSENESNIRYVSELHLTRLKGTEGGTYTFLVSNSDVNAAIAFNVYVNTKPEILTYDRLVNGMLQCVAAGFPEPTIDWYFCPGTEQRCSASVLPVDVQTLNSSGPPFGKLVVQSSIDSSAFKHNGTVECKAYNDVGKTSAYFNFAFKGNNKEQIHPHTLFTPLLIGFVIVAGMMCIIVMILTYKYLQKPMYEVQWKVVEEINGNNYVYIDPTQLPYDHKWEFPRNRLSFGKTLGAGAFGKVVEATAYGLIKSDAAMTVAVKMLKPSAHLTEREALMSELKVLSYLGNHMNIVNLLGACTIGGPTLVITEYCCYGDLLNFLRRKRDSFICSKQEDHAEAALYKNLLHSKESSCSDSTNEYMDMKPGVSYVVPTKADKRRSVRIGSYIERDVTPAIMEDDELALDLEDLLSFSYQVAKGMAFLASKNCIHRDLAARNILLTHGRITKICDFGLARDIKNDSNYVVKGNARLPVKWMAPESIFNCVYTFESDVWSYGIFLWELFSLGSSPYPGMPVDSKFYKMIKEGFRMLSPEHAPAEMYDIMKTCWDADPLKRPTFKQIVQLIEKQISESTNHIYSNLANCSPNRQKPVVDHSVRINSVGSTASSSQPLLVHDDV

[15] = target: Tyrosine-protein kinase BTK (Homo sapiens) (UniProt Q06187); test: Inhibition of wild-type human full length BTK (M1 to S659 residues) expressed in mammalian expression system at 100 nM by Kinomescan method relative to control
Chain of Tyrosine-protein kinase BTK (Homo sapiens) (Q06187 whole entry, the tested form may be a part): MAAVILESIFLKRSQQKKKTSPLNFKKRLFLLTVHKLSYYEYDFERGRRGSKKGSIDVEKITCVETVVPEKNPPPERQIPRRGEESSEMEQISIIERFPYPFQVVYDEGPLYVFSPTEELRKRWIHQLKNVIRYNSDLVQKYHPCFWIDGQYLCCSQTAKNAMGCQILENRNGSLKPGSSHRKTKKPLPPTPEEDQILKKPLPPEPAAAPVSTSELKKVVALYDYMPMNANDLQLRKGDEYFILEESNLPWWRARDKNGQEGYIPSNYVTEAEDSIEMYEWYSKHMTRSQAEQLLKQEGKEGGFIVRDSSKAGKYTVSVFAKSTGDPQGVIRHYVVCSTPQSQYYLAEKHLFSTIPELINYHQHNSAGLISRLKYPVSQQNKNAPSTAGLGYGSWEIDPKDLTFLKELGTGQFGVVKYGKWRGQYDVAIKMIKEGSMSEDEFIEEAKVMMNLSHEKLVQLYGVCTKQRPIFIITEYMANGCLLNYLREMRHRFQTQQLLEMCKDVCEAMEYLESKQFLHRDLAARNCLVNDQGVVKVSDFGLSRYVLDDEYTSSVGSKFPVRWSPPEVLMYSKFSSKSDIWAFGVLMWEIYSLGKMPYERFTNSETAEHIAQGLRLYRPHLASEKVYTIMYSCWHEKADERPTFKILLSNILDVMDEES

K562 [16] = test: Inhibition of AMPK in human K562 cells assessed as p-ACC (Ser79) level at 3.125 to […] in glucose free medium and in presence of 2-Deoxy-D-glucose measured after 3 hrs by ELISA; assay type: cell-based; details: dose 3.125-12.5 µM
[17] = target: Macrophage colony-stimulating factor 1 receptor (Homo sapiens) (UniProt P07333); test: Inhibition of wild-type human partial length autoinhibited CSF1R (Y538 to S939 residues) expressed in mammalian expression system at 100 nM by Kinomescan method relative to control
Chain of Macrophage colony-stimulating factor 1 receptor (Homo sapiens) (P07333 whole entry, the tested form may be a part): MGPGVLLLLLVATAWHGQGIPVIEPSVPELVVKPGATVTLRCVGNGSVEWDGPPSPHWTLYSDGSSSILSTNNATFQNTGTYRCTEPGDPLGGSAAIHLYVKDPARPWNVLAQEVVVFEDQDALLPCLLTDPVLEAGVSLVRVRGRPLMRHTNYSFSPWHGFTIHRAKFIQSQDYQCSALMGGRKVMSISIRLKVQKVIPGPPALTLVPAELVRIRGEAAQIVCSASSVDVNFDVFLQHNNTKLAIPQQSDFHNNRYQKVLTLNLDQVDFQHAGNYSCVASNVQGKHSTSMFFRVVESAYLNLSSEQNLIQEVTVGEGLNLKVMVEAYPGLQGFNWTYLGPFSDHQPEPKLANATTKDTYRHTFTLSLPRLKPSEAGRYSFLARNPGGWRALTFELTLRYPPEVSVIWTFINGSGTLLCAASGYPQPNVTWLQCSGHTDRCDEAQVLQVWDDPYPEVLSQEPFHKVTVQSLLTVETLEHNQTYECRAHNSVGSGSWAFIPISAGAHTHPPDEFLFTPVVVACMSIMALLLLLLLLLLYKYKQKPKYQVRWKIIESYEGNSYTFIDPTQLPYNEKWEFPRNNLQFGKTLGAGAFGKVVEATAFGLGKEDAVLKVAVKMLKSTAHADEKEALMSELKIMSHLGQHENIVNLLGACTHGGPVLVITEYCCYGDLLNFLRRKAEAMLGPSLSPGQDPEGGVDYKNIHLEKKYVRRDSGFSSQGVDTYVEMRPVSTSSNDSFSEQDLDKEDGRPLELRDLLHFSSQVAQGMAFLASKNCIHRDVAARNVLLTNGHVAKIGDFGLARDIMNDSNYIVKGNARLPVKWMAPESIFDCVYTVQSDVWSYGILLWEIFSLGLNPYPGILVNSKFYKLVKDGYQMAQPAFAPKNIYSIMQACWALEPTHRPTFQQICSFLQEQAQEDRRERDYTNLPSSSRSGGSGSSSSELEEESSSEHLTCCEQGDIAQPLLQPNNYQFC

[18] = target: Vascular endothelial growth factor receptor 2 (Homo sapiens) (UniProt P35968); details: dose 100.0 nM
Chain of Vascular endothelial growth factor receptor 2 (Homo sapiens) (P35968 whole entry, the tested form may be a part): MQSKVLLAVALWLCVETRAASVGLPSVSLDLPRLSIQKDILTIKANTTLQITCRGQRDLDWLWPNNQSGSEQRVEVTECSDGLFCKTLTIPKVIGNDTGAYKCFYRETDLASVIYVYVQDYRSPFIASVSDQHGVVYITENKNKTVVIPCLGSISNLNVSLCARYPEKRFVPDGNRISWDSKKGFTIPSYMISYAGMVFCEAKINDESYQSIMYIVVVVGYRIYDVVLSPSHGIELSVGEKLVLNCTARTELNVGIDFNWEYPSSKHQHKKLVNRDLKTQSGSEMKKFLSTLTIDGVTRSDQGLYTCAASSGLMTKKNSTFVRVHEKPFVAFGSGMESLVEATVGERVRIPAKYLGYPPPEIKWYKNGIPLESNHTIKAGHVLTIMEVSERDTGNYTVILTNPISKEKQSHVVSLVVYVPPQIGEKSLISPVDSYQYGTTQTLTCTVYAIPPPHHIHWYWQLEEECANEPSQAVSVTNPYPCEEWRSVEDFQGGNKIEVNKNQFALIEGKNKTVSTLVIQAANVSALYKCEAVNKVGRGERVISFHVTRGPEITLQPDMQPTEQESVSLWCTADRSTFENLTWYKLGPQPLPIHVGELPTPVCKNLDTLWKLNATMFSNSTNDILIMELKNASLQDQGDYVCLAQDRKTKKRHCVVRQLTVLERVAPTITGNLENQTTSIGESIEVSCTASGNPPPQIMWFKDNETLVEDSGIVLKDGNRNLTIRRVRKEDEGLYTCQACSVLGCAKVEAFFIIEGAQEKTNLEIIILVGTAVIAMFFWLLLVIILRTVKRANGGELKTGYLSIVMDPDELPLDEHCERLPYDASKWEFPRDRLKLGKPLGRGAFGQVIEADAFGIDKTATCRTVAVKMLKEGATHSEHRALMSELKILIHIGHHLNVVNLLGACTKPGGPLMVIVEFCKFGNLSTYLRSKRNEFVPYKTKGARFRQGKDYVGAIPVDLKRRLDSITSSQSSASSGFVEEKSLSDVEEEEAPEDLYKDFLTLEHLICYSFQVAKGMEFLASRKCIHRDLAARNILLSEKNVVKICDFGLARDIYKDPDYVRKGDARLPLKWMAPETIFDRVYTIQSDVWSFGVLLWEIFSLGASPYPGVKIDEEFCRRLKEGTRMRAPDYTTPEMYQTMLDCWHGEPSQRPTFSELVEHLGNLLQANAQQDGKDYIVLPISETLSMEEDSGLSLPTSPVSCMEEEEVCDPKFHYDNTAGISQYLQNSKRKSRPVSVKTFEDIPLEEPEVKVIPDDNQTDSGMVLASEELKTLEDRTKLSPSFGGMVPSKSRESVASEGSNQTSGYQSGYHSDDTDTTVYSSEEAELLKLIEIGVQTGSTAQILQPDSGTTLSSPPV
Description: Inhibition of wild-type human partial length VEGFR2 (R787 to P1253 residues) expressed in mammalian expression system at 100 nM by Kinomescan method relative to control

[19] = target: Macrophage colony-stimulating factor 1 receptor (Homo sapiens) (UniProt P07333); test: Inhibition of wild-type human partial length CSF1R (I564 to S939 residues) expressed in bacterial expression system at 100 nM by Kinomescan method relative to control
[20] = target: Tyrosine-protein kinase JAK1 (Homo sapiens) (UniProt P23458); test: Inhibition of wild-type human partial length JAK1 JH2 pseudokinase domain (R537 to D855 residues) expressed in mammalian expression system at 100 nM by Kinomescan method relative to control
[21] = target: 5'-AMP-activated protein kinase catalytic subunit alpha-1 (Homo sapiens) (UniProt Q13131); test: Inhibition of wild-type human partial length AMPK alpha1 (M1 to E306 residues) expressed in bacterial expression system at 100 nM by Kinomescan method relative to control
[22] = target: 5'-AMP-activated protein kinase catalytic subunit alpha-2 (Homo sapiens) (UniProt P54646); test: Inhibition of wild-type human partial length AMPK alpha2 (M1 to E306 residues) expressed in bacterial expression system at 100 nM by Kinomescan method relative to control
[23] = target: Vascular endothelial growth factor receptor 1 (Homo sapiens) (UniProt P17948); test: Inhibition of wild-type human partial length FLT1 (R781 to F1239 residues) expressed in bacterial expression system at 100 nM by Kinomescan method relative to control
K562 [24] = test: Inhibition of AMPK in human K562 cells assessed as p-ACC (Ser79) level at 50 uM in glucose free medium and in presence of 2-Deoxy-D-glucose measured after 3 hrs by ELISA; assay type: cell-based

CCc1ccc2c(c1)NC(=O)/C2=C\c1[nH]c(C)c(C(=O)NCCN(CC)CC)c1C
inhibition [1]: 70% | inhibition [2]: 90%

CCN(CC)CCNC(=O)c1c(C)[nH]c(/C=C2\C(=O)Nc3ccc(C#N)cc32)c1C
cytotoxicity at 24 h, 50 µM [3]: 75% | cytotoxicity at 72 h, 50 µM [4]: 98% | pEC50 (K562 [5]): 4.87 | pEC50 (K562 [6]): 4.70

CCNCCNC(=O)c1c(C)[nH]c(/C=C2\C(=O)Nc3ccc(F)cc32)c1C
pEC50 (K562 [7]): 4.87 | pEC50 (K562 [5]): 4.93 | pEC50 (K562 [6]): 4.81 | pEC50 (K562 [8]): 4.89

CCN(CC)CCCNC(=O)c1c(C)[nH]c(/C=C2\C(=O)Nc3ccc(F)cc32)c1C
cytotoxicity at 24 h, 50 µM [3]: 63% | pEC50 (K562 [7]): 4.87 | pEC50 (K562 [6]): 4.75

CCN(CC)CCNC(=O)c1c(C)[nH]c(/C=C2\C(=O)Nc3cc(C)ccc32)c1C
inhibition [2]: 88%

Cc1[nH]c(/C=C2\C(=O)Nc3ccc(F)cc32)c(C)c1C(=O)O
inhibition [1]: 78% | inhibition [2]: 85%

CCN(CC)CCNC(=O)c1c(C)[nH]c(/C=C2\C(=O)Nc3ccc(CCNC(C)=O)cc32)c1C
cytotoxicity at 24 h, 50 µM [3]: 5% | cytotoxicity at 72 h, 50 µM [4]: 64% | cytotoxicity at 24 h, 50 µM [9]: 98% | cytotoxicity at 48 h, 50 µM [10]: 42%

CCN(CC)CCNC(=O)c1c(C)[nH]c(/C=C2\C(=O)Nc3ccc(CCC#N)cc32)c1C
cytotoxicity at 24 h, 50 µM [3]: 64% | pEC50 (K562 [7]): 4.83 | pEC50 (K562 [5]): 4.87 | pEC50 (K562 [6]): 4.75 | inhibition (K562 [11]): 34.1%

CNC(=O)c1ccccc1Oc1nc(Nc2cc(OC)c(OC)c(OC)c2)ncc1Br
pIC50 [12]: 6.40

Cc1[nH]c(/C=C2\C(=O)Nc3ccc(F)cc32)c(C)c1C(=O)NCCN(C)C
cytotoxicity at 24 h, 50 µM [3]: 70% | pEC50 (K562 [7]): 4.90 | cytotoxicity at 24 h, 50 µM [9]: 98%

CCCNC(=O)c1c(C)[nH]c(/C=C2\C(=O)Nc3ccc(F)cc32)c1C
inhibition [1]: 30% | inhibition [2]: 48%

CCN(CC)CCNC(=O)c1c(C)[nH]c(/C=C2\C(=O)Nc3cc(Br)ccc32)c1C
inhibition [1]: 89%

CCN(CC)CCNC(=O)c1c(C)[nH]c(/C=C2\C(=O)N(C)c3ccc(F)cc32)c1C
pEC50 (K562 [7]): 5.17 | inhibition [1]: 40% | pEC50 (K562 [6]): 4.93 | pEC50 (K562 [8]): 4.92 | inhibition [2]: 17%

CCN(CC)CCNC(=O)c1c(C)[nH]c(/C=C2\C(=O)Nc3cc(Cl)ccc32)c1C
cytotoxicity at 72 h, 1.56 µM [13]: 65% | pEC50 (K562 [5]): 5.38 | pEC50 (K562 [6]): 5.42 | pEC50 (K562 [8]): 5.28

CCN(CC)CCNC(=O)c1c(C)[nH]c(/C=C2\C(=O)Nc3ccc(CCC(N)=O)cc32)c1C
inhibition [14]: 0% | inhibition [15]: 0% | inhibition (K562 [16]): Active | inhibition [17]: 14% | inhibition [18]: 19% | inhibition [19]: 18% | inhibition [20]: 41% | inhibition [21]: 29% | inhibition [22]: 64% | inhibition (K562 [11]): 29.2%

CCN(CC)CCNC(=O)c1c(C)[nH]c(/C=C2\C(=O)Nc3ccc(CCN=[N+]=[N-])cc32)c1C
cytotoxicity at 24 h, 50 µM [3]: 90% | pEC50 (K562 [7]): 5.42 | pEC50 (K562 [5]): 5.32 | pEC50 (K562 [6]): 5.31

CCN(CC)CCNC(=O)c1c(C)[nH]c(/C=C2\C(=O)Nc3ccc(CCO)cc32)c1C
inhibition [14]: 28% | inhibition [23]: 42% | inhibition [18]: 55% | inhibition (K562 [24]): Active | inhibition [19]: 24% | inhibition [20]: 54% | inhibition [21]: 49% | inhibition [22]: 35% | inhibition (K562 [11]): 23.7%

CCN(CC)CCNC(=O)c1c(C)[nH]c(/C=C2\C(=O)Nc3cc(F)ccc32)c1C
cytotoxicity at 24 h, 50 µM [3]: 61% | pEC50 (K562 [7]): 5.55 | pEC50 (K562 [5]): 5.15 | cytotoxicity at 24 h, 50 µM [9]: 98%

CCN(CC)CCNC(=O)c1c(C)[nH]c(/C=C2\C(=O)Nc3cc(C(C)C)ccc32)c1C
inhibition [2]: 69%
